In data set [1] the test system is HeLa cells. Description: Simulated deep-tissue photodynamic therapy, MTT assay with pork tissue between laser and cells. Type of data set: cell-based. As to conditions: 100 μg/mL; for cell viability: CW 980 nm 1 W/cm^2, 20 min. How it is done: Photodynamic therapy of a deep-set tumor condition using the 5-aminolevulinic acid conjugated upconverting nanoparticles with an 80% ytterbium ratio was simulated by placing pieces of pork tissue of varying thickness (representing a patient's flesh) between a near infra-red laser and HeLa cells exposed to the upconverting nanoparticles, as shown in FIG. 12(a). The cells were analyzed for cell viability using an MTT assay. After 20 min. of irradiation at 1 W/cm^2, for all pork thicknesses, the cells exposed the 5-aminolevulinic acid conjugated nanoparticles as disclosed herein had cell viabilities that were reduced significant to the control hydrazide-functionalized upconverting nanoparticles (Hyd-UCNPs). In the absence of pork (0 mm), cell viability was less than 20%, in the presence of 6 mm pork, cell viability was less than 50%, and even with 12 mm pork, cell viability was still reduced to below 80% compared to the control. This establishes and validates the feasibility of using upconverting nanoparticles as a near infra-red-to-red transducer for prodrug photodynamic therapy at a deep-tissue level (up to about 1 cm or greater).
Finally, the red-emitting upconverting nanoparticle system containing an ytterbium ratio of 80% was compared with the known upconverting nanoparticle β/β core/shell red-emitting nanoparticles at a deep tissue level with a biocompatible low power density 0.35 W/cm^2 for laser irradiation. […] The 5-aminolevulinic acid conjugated nanoparticles described herein having an ytterbium ratio of 80% achieved 40% cell death even through 1.2 cm of pork. The ability of the presently-disclosed lanthanide-doped upconverting nanoparticles' to induce significant phototherapeutic effect with such low power excitation yet thick superficial tissue makes it a major step forward in photodynamic therapy materials.
FIGS. 12(a) and 12(b): FIG. 12(a) Photograph of the setup for simulated photodynamic therapy using an in vitro MTT assay. FIG. 12(b): Plots of HeLa cell viability for cells covered with 0, 6, and 12 mm pork tissue on top of the cells and irradiated with CW 980 nm light at a 1 W/cm^2 power density for 20 min.
FIG. 13: Plots of HeLa cell viability for cells covered with 0, 6, and 12 mm pork tissue on top of the cells and irradiated with CW 980 nm light at a 0.35 W/cm^2 power density for 20 min.

Data set [2] in a line: Body mass change of mice in in vivo PDT treatment groups. More on the design: species or system Balb/c mice. The following applies: control and treatment groups, after 14 days. Here is the method:
An optical fiber-coupled 980 nm high power laser diode (Hi-Tech Optoelectronics Co., Ltd. Beijing, China) was used to irradiate tumors at a power density of about 0.5 W/cm^2 for 40 min. (1 min. interval after each minute of irradiation). The tumor sizes were measured by a caliper every other day and calculated as the volume (tumor length)×(tumor width)^2/2. The body weight of mice was also measured with every tumor measurement and percent change was calculated by the formula (observed body weight)/(body weight on day 0)×100%.
FIG. 15 is a plot of body mass change of mice in in vivo PDT treatment groups with UCNP and light exposure after 14 days. […]

In data set [3] the test system is HeLa cells. The following applies: 100 μg/mL. How it is done: As a model to examine the efficacy of 5-aminolevulinic acid-conjugated upconverting particles as described herein, particles prepared as described herein (having an 80 mol % Yb content), a 3-(4,5-dimethylthiazol-2-yl)-2,5-diphenyltetrazolium bromide (MTT) proliferation assay was conducted to determine inhibition of cell proliferation using photodynamic therapy with the nanoparticles prepared as described herein. In the cell proliferation assay, HeLa cells were exposed to 5-aminolevulinic acid-conjugated upconverting particles and various controls (all 100 μg/mL) for 4 h and the cells were then irradiated by irradiation of continuous wave 980 nm light at 1 W/cm^2. The results of the assay are shown in FIG. 8, which depicts cell viability as a function of irradiation time.
Then, impact of the lanthanide-doped upconverting nanoparticles on 5-ALA-induced photodynamic therapy was evaluated. […] Cells exposed to these control nanoparticles were irradiated at a biocompatible low power density of 0.35 W/cm^2.
A 96-well microtiter plate seeded with 1×10^4 HeLa cells/well was incubated overnight at 37° C. with 5% CO2. Cells were subsequently exposed to (i) 5-aminolevulinic acid functionalized upconverting nanoparticles comprising 80 mol % ytterbium (ALA-UCNPs, 100 μg/mL), (ii) hydrazide functionalized upconverting nanoparticles (no 5-ALA) (Hyd-UCNPs, 100 μg/mL), (iii) free 5-aminolevulinic acid (ALA, 100 μg/mL) or (iv) PBS (growth medium control) and then irradiated with CW 980 nm laser diode at 1 W/cm^2 for 0, 5, 10, or 20 min. After overnight incubation, cells were labeled with 12 mM solution of MTT in PBS for 4 h. Finally, the media was aspirated and replaced with 50 μL DMSO and cell viability was quantified by formazan absorption determined by a plate reader at 540 nm.
FIG. 8: Plots showing the viability of HeLa cells irradiated with CW 980 nm light at 1 W/cm^2 power density.
FIG. 9: Plots showing the viability of HeLa cells irradiated with CW 980 nm light at 0.35 W/cm^2 power density. […]

Where two headings read alike, the source gives them in different places.

Regarding “α-NaYF4:Yb(80%),Er(2%)@CaF2 ALA [ALA-UCNPs]”, the cell viability result with HeLa cells [1] (6 mm pork) is recorded as “less than 50%”; in the data set with HeLa cells [1] (12 mm pork, compared to the control), “below 80%”; with HeLa cells [1] (absence of pork (0 mm)), “less than 20%”. Also, the cell death in the data set on HeLa cells [1] (through 1.2 cm of pork, CW 980 nm 0.35 W/cm^2, 20 min) is reported as 40%; in the data set on HeLa cells [3] (CW 980 nm 0.35 W/cm^2, 20 min irradiation), “more than 60%”. In data set [2], the body mass change entry is on record as “no significant difference across the groups”. Moreover, the viability of cells entry in the data set with HeLa cells [3] (4 h exposure, CW 980 nm 1 W/cm^2, 10 min irradiation) is on record as “about 30%”. This substance returned a killing rate in the data set with HeLa cells [3] (CW 980 nm 1 W/cm^2, 10 min irradiation) of about 70%.

(Values after US9956426B2, “Upconverting nanoparticles” (priority 2015, dated 2018).)
